This is an account of results in article PMC10215804, “Exploring Alternative Pathways to Target Bacterial Type II Topoisomerases Using NBTI Antibacterials: Beyond Halogen-Bonding Interactions” (Antibiotics, 2023).

Read-outs that look alike come from different tables or passages of the source.

In one data set the test system is K. pneumoniae. Put plainly: MIC, broth microdilution. The data set is classed as cell-based. Particulars: Klebsiella pneumoniae. The method, then: (§1) For the determination of minimum inhibitory concentrations (MIC), the broth microdilution method was used in 96-well plate format, according to the guidelines of the Clinical and Laboratory Standards Institute and the recommendations of the European Committee on Antimicrobial Susceptibility Testing (EUCAST). The dilutions of the bacterial suspension of the specific bacterial strain, corresponding to the 0.5 McFarland turbidity standard, were prepared with […] Mueller–Hinton broth with TES (Thermo Fisher Scientific) to obtain an end inoculum of 10^5 CFU/mL. The compounds were dissolved in DMSO and mixed with the inoculum. […] The MIC was determined as the lowest concentration of antibiotic that prevented visible bacterial growth. Tetracycline was used as a positive control on each test plate.

A further data set concerns A. baumannii. Put plainly: MIC, broth microdilution. The data set is classed as cell-based. The settings on record: Acinetobacter baumannii. The method, then:
as §1
(In general: Dilution methods test growth across graded concentrations, often in twofold steps.)

Another data set deals with E. coli (ATCC 25922). Put plainly: MIC, broth microdilution. The data set is classed as cell-based. Particulars: Escherichia coli. The method, then: as §1
The test system of a further data set is P. aeruginosa RDK 184. Put plainly: MIC, broth microdilution. Format: cell-based. The settings on record: Pseudomonas aeruginosa. The method, then: as §1
In another data set the test system is E. coli D22. Put plainly: MIC, broth microdilution. Particulars: Escherichia coli. Format: cell-based. The method, then:
as §1

Another data set concerns E. faecalis RDK 057. Put plainly: MIC, broth microdilution. Format: cell-based. The settings on record: Enterococcus faecalis, RDK057. The method, then:
as §1

For another data set, the system named is S. aureus (ATCC 29213). Put plainly: MIC, broth microdilution. Format: cell-based. The settings on record: Staphylococcus aureus. The method, then:
as §1

In a further data set the test system is E. coli N43 (CGSC# 5583). Put plainly: MIC, broth microdilution. Format: cell-based. Particulars: Escherichia coli. The method, then: as §1
For another data set, the system named is VRE. Put plainly: MIC, broth microdilution. Format: cell-based. Particulars: Enterococcus. The method, then: as §1
The subject of the next data set is MRSA (QA-11.2). Put plainly: MIC, broth microdilution. The settings on record: Staphylococcus aureus. Format: cell-based, S. aureus. The method, then:
as §1

Another data set deals with MRSA (QA-11.7). Put plainly: MIC, broth microdilution. Format: cell-based, S. aureus. The settings on record: Staphylococcus aureus. The method, then: as §1
The next data set deals with MRSA(QA-12.1). Put plainly: MIC, broth microdilution. The data set is classed as cell-based, S. aureus. Particulars: Staphylococcus aureus. The method, then: as §1
Data set [1] is described as follows: Metabolic activity assessment (cytotoxicity), CellTiter 96 Aqueous One. Particulars: human, 72 h treatment, means of three independent measurements ± SD. The data set is classed as cell-based. The method, then:
HUVEC (ATCC® CRL-1730™) and HepG2 (ATCC® HB-8065™) cell lines were cultured in Dulbecco’s Modified Eagle Medium (DMEM; Sigma-Aldrich, St. Louis, MO, USA) supplemented with 10% heat-deactivated FBS (Gibco, Grand Island, NE, USA), 2 mM L-glutamine, 100 U/mL penicillin, 100 μg/mL streptomycin (all from Sigma-Aldrich, St. Louis, MO, USA) in a humidified chamber at 37 °C and 5% CO2. The experiments were carried out on passages 4–7 for both cell lines. The tested compounds were dissolved in DMSO and further diluted in culture medium to a desired final concentration. The cells were then seeded into 96-well plates at 5 × 10^4 cells/mL (100 μL/well) or 8 × 10^4 cells/mL (100 μL/well) for HUVEC and HepG2, respectively. The cells were then incubated for 24 h to allow attachment onto the wells. The cells were treated with 1 μM and 50 μM of each compound of interest, or the corresponding vehicle as control. […] Their metabolic activity was assessed after 72 h treatment using a CellTiter 96 Aqueous One Solution Cell Proliferation Assay (Promega, Madison, WI, USA), in accordance with the manufacturer’s instructions. The absorbance was measured at 492 nm on an automated microplate reader, Tecan Spark (Tecan Group Ltd., Männedorf, CH, Switzerland). Data are presented as the percentage of metabolic activity of control cells stimulated with vehicle, or as an IC50 value (mean ± SD) from three independent experiments, each conducted in triplicate (for screening) or duplicate (for IC50 determination). IC50 values were calculated using a non-linear regression model and with Graph Pad Prism 9 software.

The test system of another data set is E. coli ESBL QA-11.3. Put plainly: MIC, broth microdilution. Format: cell-based. Particulars: Escherichia coli. The method, then:
as §1

The next data set addresses T1, S. aureus DNA gyrase (Staphylococcus aureus, UniProt P20831).
T1 construct: purchased Inspiralis (Norwich, UK)
Put plainly: biochemical. Particulars: supercoiling inhibition; mean of two independent measurements ± SD. The method, then:
(§2) To determine the IC50 values of the compounds for S. aureus and E. coli, a DNA gyrase supercoiling high-throughput plate assay and a topoIV relaxation high-throughput plate assay were performed. Assay kits and black streptavidin-coated 96-well microtiter plates are available from Inspiralis (Norwich, UK). For pre-screening, an inhibitor concentration of 100 μM was used. […] A nonlinear regression-based fit of the inhibition curves was used, with the log [inhibitor] versus slope of the reaction variables (four parameters) and a symmetric equation. […] To determine IC50 values, two independent repetitions were performed and the average was calculated.

The target of the next data set is T2, S. aureus topoIV (Staphylococcus aureus, UniProt P0C1U9).
T2 construct: purchased Inspiralis (Norwich, UK)
T2 sequence (P0C1U9 whole entry): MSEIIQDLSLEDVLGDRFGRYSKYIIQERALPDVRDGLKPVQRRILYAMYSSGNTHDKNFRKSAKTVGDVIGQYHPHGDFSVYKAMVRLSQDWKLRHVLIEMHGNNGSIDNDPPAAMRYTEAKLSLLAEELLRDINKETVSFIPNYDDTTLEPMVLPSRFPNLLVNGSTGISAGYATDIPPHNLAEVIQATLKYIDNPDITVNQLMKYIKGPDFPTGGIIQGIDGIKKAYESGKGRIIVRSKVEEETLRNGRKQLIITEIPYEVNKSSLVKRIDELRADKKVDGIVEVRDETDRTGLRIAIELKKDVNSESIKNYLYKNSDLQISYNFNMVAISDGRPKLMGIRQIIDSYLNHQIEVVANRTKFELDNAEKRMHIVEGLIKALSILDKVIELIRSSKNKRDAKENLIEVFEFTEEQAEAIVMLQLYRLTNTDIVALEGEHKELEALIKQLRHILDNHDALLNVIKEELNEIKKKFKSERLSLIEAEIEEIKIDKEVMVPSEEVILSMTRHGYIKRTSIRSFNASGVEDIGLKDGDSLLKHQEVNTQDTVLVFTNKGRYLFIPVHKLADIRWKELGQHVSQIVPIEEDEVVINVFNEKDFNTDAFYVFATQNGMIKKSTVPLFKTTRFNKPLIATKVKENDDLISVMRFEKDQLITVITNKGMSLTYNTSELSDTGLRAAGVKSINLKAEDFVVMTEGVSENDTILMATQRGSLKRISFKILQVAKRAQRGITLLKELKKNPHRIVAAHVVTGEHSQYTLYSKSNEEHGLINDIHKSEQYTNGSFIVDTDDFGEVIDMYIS
T2 sequence (P0C1S7 whole entry partner): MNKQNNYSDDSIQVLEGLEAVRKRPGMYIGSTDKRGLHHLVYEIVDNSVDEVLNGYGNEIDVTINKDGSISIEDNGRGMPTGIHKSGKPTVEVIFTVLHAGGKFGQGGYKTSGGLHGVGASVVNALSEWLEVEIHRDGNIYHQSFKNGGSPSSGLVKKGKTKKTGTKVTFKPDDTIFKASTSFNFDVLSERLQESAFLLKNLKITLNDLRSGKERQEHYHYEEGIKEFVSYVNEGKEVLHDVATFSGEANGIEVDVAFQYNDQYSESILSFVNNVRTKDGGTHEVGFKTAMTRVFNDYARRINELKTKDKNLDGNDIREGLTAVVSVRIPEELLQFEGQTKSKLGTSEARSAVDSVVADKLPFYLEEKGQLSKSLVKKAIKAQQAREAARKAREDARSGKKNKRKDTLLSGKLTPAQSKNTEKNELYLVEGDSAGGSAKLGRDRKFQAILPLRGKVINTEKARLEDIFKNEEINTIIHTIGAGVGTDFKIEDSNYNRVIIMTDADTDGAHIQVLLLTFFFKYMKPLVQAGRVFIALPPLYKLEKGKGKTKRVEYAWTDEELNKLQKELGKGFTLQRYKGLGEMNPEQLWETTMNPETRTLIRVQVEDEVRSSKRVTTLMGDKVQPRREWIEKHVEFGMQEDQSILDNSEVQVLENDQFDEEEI
Put plainly: biochemical. Particulars: relaxation inhibition; mean of two independent measurements ± SD. The method, then:
as §2

For a further data set, the target named is T3, human topoisomerase IIα (Homo sapiens, UniProt P11388).
T3 construct: purchased Inspiralis (Norwich, UK)
Put plainly: human topoisomerase II alpha relaxation high-throughput assay (selectivity). Format: biochemical. Particulars: residual activity at 100 µM compound; mean ± SD, two independent experiments; read-out: Human TopoIIα (% RA at 100 µM). The method, then: For selectivity determination, a human topoisomerase II alpha relaxation high-throughput assay was used. The assay kits and black streptavidin-coated 96-well microtiter plates are available from Inspiralis (Norwich, UK). Two independent measurements were performed with an inhibitory concentration of 100 µM. Raw data were calculated as the mean ± SD percentage of the residual enzyme activity.

The target of another data set is T4, E. coli DNA gyrase (Escherichia coli, UniProt P0AES4).
T4 construct: purchased Inspiralis (Norwich, UK)
T4 sequence (P0AES4 whole entry): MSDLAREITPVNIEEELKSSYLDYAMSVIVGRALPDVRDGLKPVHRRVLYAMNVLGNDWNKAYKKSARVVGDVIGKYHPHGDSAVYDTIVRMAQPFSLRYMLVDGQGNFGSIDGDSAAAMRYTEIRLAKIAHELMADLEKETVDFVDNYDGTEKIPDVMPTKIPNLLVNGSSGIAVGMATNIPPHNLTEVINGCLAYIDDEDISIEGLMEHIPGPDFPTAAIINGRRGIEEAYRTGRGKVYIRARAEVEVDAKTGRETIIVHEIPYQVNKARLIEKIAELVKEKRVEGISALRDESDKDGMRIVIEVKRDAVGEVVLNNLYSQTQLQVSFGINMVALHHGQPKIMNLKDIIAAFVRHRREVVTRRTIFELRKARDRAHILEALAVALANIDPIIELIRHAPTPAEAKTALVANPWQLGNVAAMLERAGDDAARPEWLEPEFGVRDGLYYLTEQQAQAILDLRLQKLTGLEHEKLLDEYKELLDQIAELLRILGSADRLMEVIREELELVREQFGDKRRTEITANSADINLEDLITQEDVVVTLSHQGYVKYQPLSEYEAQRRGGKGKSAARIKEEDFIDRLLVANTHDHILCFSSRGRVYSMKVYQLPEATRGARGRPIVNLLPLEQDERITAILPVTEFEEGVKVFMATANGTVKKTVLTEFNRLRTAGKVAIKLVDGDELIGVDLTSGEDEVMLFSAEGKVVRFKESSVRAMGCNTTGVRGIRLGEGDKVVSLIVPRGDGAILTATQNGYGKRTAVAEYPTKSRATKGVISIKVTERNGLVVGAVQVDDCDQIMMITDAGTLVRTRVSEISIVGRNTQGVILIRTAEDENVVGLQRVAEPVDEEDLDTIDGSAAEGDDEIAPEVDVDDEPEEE
Put plainly: DNA gyrase supercoiling inhibition assay (high-throughput plate assay). Format: biochemical. The method, then: as §2

The next data set concerns the target T5, E. coli topoIV (Escherichia coli, UniProt P0AFI2).
T5 construct: purchased Inspiralis (Norwich, UK)
Put plainly: topoIV relaxation inhibition assay (high-throughput plate assay). Format: biochemical. The method, then: as §2

Where [2] appears, read: ATCC25922, read-out: MIC E. coli (ATCC 25922).
[3] abbreviates: RDK184, read-out: MIC P. aeruginosa RDK 184.
[4] abbreviates: Table S3, read-out: MIC (μM) E. faecalis DRK 057.
Where [5] appears, read: read-out: MIC E. faecalis RDK 057.
[6] abbreviates: read-out: MIC E. coli N43 (CGSC# 5583).

T1 sequence (P20831 whole entry): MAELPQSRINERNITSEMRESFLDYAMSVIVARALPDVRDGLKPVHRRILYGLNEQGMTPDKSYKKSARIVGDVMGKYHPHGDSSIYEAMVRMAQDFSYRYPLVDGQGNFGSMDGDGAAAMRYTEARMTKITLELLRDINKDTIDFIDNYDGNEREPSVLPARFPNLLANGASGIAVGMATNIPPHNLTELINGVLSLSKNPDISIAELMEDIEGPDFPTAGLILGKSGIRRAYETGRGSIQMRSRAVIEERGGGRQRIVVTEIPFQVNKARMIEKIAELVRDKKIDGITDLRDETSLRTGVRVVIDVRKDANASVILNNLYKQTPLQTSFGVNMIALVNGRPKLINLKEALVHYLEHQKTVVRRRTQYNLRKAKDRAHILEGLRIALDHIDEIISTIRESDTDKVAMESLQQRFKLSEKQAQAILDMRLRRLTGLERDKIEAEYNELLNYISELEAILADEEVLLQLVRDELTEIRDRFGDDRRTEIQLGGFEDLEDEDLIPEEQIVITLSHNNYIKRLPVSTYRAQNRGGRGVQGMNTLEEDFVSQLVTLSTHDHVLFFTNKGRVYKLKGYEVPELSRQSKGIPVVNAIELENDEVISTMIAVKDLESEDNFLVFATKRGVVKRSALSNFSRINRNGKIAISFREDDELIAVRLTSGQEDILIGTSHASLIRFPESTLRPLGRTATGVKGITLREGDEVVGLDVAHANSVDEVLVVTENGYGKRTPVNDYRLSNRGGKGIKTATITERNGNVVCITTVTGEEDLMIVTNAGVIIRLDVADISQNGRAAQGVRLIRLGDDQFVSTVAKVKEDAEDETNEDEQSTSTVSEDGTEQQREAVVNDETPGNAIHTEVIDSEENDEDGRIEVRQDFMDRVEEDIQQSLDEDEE
T1 sequence (P0A0K8 whole entry partner): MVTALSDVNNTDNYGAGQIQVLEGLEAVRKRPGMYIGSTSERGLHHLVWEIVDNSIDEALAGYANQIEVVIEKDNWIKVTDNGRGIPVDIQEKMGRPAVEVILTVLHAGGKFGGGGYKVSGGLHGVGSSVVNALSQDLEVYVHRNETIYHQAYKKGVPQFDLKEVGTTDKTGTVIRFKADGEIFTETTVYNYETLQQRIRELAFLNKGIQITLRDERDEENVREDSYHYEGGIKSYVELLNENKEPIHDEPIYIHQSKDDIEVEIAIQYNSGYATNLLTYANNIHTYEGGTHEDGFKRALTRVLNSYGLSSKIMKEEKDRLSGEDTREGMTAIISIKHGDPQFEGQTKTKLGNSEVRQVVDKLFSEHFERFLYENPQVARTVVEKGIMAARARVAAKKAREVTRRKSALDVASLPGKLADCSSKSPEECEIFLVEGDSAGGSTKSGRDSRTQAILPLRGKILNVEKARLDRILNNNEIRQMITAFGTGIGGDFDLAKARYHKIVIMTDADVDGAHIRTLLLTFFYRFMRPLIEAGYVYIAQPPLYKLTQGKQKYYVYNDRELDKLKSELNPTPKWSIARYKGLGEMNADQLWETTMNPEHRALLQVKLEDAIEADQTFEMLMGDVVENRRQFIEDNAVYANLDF

Turning to `O=c1ccc2ncc(=O)n3c2n1C[C@H]3CN1CCC(NCc2cc3c(cn2)OCCC3)CC1` [Gepo, gepotidacin, reference compound], the MIC (commonly the smallest concentration in the dilution series that meets the test's criterion for growth inhibition) amounted to 20.5 µM in the data set with K. pneumoniae (Table S3, read-out: MIC (μM) K. pneumoniae); 8 µg/mL in the data set on K. pneumoniae (read-out: MIC K. pneumoniae); 20.5 µM in the data set with A. baumannii (Table S3, read-out: MIC (μM) A. baumannii); 8 µg/mL in the data set with A. baumannii (read-out: MIC A. baumannii); 2.56 µM in the data set on E. coli (ATCC 25922) (ATCC25922, Table S3, read-out: MIC (μM) E. coli (ATCC 25922)); 1 µg/mL in the data set with E. coli (ATCC 25922) (setting [2]). The MIC was determined as 20.5 µM in the data set on P. aeruginosa RDK 184 (RDK184, Table S3, read-out: MIC (μM) P. aeruginosa RDK 184); 8 µg/mL with P. aeruginosa RDK 184 (setting [3]); 0.32 µM with E. coli D22 (D22, Table S3, lpxC mutation, read-out: MIC (μM) E. coli D22); 5.12 µM in the data set on E. faecalis RDK 057 (setting [4]); 2 µg/mL in the data set on E. faecalis RDK 057 (setting [5]); 0.32 µM in the data set with S. aureus (ATCC 29213) (ATCC29213, Table S3, read-out: MIC (μM) S. aureus (ATCC 29213)). The MIC was 0.041 µM in the data set with E. coli N43 (CGSC# 5583) (read-out: MIC (μM) E. coli N43); 0.016 µg/mL with E. coli N43 (CGSC# 5583) (setting [6]); 2.56 µM with VRE (Table S3, read-out: MIC (μM) VRE); 1 µg/mL in the data set on VRE (read-out: MIC VRE); 1.28 µM in the data set with MRSA (QA-11.2) (Table S3, read-out: MIC (μM) MRSA (QA-11.2)); 0.5 µg/mL in the data set on MRSA (QA-11.2) (read-out: MIC MRSA (QA-11.2)). In addition, the MIC in the data set on MRSA (QA-11.7) (Table S3, read-out: MIC (μM) MRSA (QA-11.7)) came out at 0.161 µM; with MRSA (QA-11.7) (strain resistant to cefoxitin, ciprofloxacin, clindamycin, erythromycin, tetracycline, thiamulin, trimethoprim, read-out: MIC MRSA (QA-11.7)), 0.063 µg/mL; with MRSA(QA-12.1) (Table S3, read-out: MIC (μM) MRSA(QA-12.1)), 0.32 µM; with MRSA(QA-12.1) (strain resistant to cefoxitin, gentamicin, kanamycin, rifampicin, streptomycin, sulfamethoxazole, tetracycline, read-out: MIC MRSA(QA-12.1)), 0.125 µg/mL.
`COc1ccc2nccc(CCN3CCC(NCc4ccc(N)cc4)CC3)c2n1` [Compound 9, N-(4-Aminobenzyl)-1-(2-(6-methoxy-1,5-naphthyridin-4-yl)ethyl)piperidin-4-amine]: the figures for the IC50 at 72 h in [1] (HUVEC cells (ATCC CRL-1730)) and in data set [1] (HepG2 cells (ATCC HB-8065)) were 34 ± 16.9 µM and 26.1 ± 9.52 µM, respectively. For the same compound, the MIC with K. pneumoniae (20 h, Table S3, read-out: MIC (μM) K. pneumoniae) is above 328 µM; with K. pneumoniae (read-out: MIC K. pneumoniae) it was above 128 µg/mL; in the data set on A. baumannii (20 h, Table S3, read-out: MIC (μM) A. baumannii), above 328 µM; in the data set on A. baumannii (read-out: MIC A. baumannii), above 128 µg/mL; in the data set on E. coli (ATCC 25922) (ATCC25922, 20 h, Table S3, read-out: MIC (μM) E. coli (ATCC 25922)), above 328 µM; with E. coli (ATCC 25922) (setting [2]), above 128 µg/mL. The MIC in the data set on P. aeruginosa RDK 184 (RDK184, 20 h, Table S3, read-out: MIC (μM) P. aeruginosa RDK 184) was above 328 µM; in the data set with P. aeruginosa RDK 184 (setting [3]), above 128 µg/mL; in the data set with E. coli D22 (D22, 20 h, Table S3, lpxC mutation, read-out: MIC (μM) E. coli D22), above 328 µM; in the data set on E. coli D22 (D22, lpxC mutation that increases membrane permeability, read-out: MIC E. coli D22) it was above 128 µg/mL; in the data set with E. faecalis RDK 057 (setting [4]), above 328 µM; in the data set with E. faecalis RDK 057 (setting [5]) it was above 128 µg/mL. The MIC was 164 µM with S. aureus (ATCC 29213) (ATCC29213, read-out: MIC (μM) S. aureus (ATCC 29213)); 64 µg/mL in the data set on S. aureus (ATCC 29213) (ATCC29213, read-out: MIC S. aureus (ATCC 29213)); above 328 µM in the data set with E. coli ESBL QA-11.3 (ESBLQA11.3, 20 h, Table S3, read-out: MIC (μM) E. coli ESBL QA:11.3); above 128 µg/mL in the data set with E. coli ESBL QA-11.3 (ESBLQA11.3, read-out: MIC E. coli ESBL QA-11.3); 164 µM with E. coli N43 (CGSC# 5583) (read-out: MIC (μM) E. coli N43); 64 µg/mL in the data set with E. coli N43 (CGSC# 5583) (setting [6]). Also, the IC50 – broadly, the concentration at which inhibition is half-maximal – at S. aureus DNA gyrase is 1.38 ± 0.108 µM; on S. aureus topoIV it was above 100 µM; against E. coli DNA gyrase, above 100 µM; against E. coli topoIV it was 5.698 ± 0.014 µM. Further, at human topoisomerase IIα, the remaining activity at 100 µM was determined as 100 ± 1%.
